The values below come from patent US11179450B2, “Long chain antigen containing interepitope sequence that promotes antigen presentation to T cells” (MIE UNIVERSITY, priority 2013, dated 2021).

Data set [1] concerns NY p81 specific CD8+ T cells. Briefly: Specific CD8+ T cell induction in mice, intracellular cytokine staining (NY p81 epitope). It counts as in vivo, BALB/c mice. The conditions noted are these: FIG. 5; ESO1 LP vaccines complexed with CHP, CpG oligo DNA. From the text: (§1) A long chain peptide antigen ESO1 LP (native type) (Sequence No. 16) and a long chain peptide antigen ESO1 LP (Y6) (Sequence No. 17), both containing a mouse CD8+ T cell epitope sequence (NY p81 or NY p82) and a mouse CD4+ T cell epitope sequence (NY p91) that are derived from human NY-ESO-1 antigen, were synthesized. As the interepitope sequence between epitopes, the native amino acid sequence of NY-ESO-1 was retained in the ESO1 LP (native type) and the sequence of six consecutive tyrosines (Y6) was used in the ESO1 LP (Y6). Vaccines containing the respective long chain peptide antigens were administered to mice in the same manner as in FIG. 1 and the frequencies of CD8+ T cells and CD4+ T cells specific to the respective epitope sequences were measured by the intracellular cytokine staining method.
Long chain peptide antigens MEN, all containing three types of mouse CD8+ T cell epitope sequences (MA p265 (Sequence No. 27), NY p81 (Sequence No. 29), and mERK2 9m (Sequence No. 28)), were synthesized. The interepitope sequences between the respective epitopes were one to six consecutive tyrosines (Sequence Nos. 1 and 9-12). Vaccines containing the respective long chain peptide antigens were administered to mice in the same manner as in FIG. 1 and the frequencies of CD8+ T cells specific to the respective epitope sequences were measured by the intracellular cytokine staining method.
Long chain peptide antigens MEN, all containing three types of mouse CD8+ T cell epitope sequences (MA p265 (Sequence No. 27), NY p81 (Sequence No. 29), and mERK2 9m (Sequence No. 28)), were synthesized. The interepitope sequences between the respective epitopes were five to ten consecutive tyrosines (Sequence Nos. 1 and 13-15). Vaccines containing the respective long chain peptide antigens were administered to mice in the same manner as in FIG. 1 and the frequencies of CD8+ T cells specific to the respective epitope sequences were measured by the intracellular cytokine staining method. […]

In data set [2] the test system is NY p91 specific CD4+ T cells. Kind of data set: Specific CD4+ T cell induction in mice, intracellular cytokine staining (NY p91 epitope). It counts as in vivo, BALB/c mice. Particulars: FIG. 5; ESO1 LP vaccines complexed with CHP, CpG oligo DNA.
From the text: as §1
Each CHP/long chain peptide complex as the vaccine and the CpG oligo DNA as the adjuvant were administered at the same time to a mouse. Administration was performed by subcutaneous injection on the back of the mouse. As the dose, the CHP/long chain peptide complex was administered at 0.05 to 0.1 mg equivalent of long chain peptide per administration. […]
The mouse spleen cells were added at 5×10^6 cells/0.5 mL per well to a 24-well culture plate (Nunc). […] The cells were analyzed by a flow cytometer (FACS Canto II, BD Biosciences) using the included analysis software (FACSDiva).

For the next data set, the system named is CD8+ T cell. Particulars: compared with NY p81; Non-Patent Document 8; cited from earlier work.
For data set [3], the system named is NY p157 specific CD8+ T cell clone 1G4 cells. Briefly: Antigen presentation by LCL electroporated with mRNA vaccine, IFN-γ ELISPOT (1G4). The conditions noted are these: FIG. 11; mRNA introduced into LCL by electroporation. It counts as cell-based, human. Here is the method:
(§2) The interepitode sequences between the respective epitopes were the six consecutive amino acids shown in FIG. 11, namely sequence Nos. 31-34. Each mRNA was introduced in vitro as a vaccine into LCL by electroporation. Using these LCL as the antigen-presenting cells, they were co-cultured with CD8+ T cell clone 1G4 cells specific to NY p157 or CD8+ T cell clone RNT007#45 cells specific to MA4 p143 and the activation of the CD8+ T cells due to antigen presentation was measured by the IFN-γ ELISPOT method.
(§3) mRNA was introduced by an electroporation method (300V, 700 μs) using ECM830 into LCL that was rinsed and suspended in the same manner as in (9). The cells were cultured for 24 hours at 37° C. in the presence of 5% CO2 and then used as antigen-presenting cells.
(§4) 75 μL aliquots of anti-IFN-γ antibody for capture, diluted to an appropriate concentration, were dispensed into a 96-well plate (Millipore Corp., Multiscreen HA, MAHAS4510) specially designed for ELISPOT and left to stand overnight at 4° C. After discarding the liquid and rinsing with RPMI medium, 100 μL aliquots of RPMI medium containing 10% fetal bovine serum were dispensed and the plate was left to stand for not less than 1 hour at 37° C. The liquid was discarded, and the LCL prepared in (9) or (10) was adjusted to 5×10^4 cells/100 μL/well and added to each well. […]

The subject of data set [4] is MA4 p143 specific CD8+ T cell clone RNT007 #45 cells. Kind of data set: Antigen presentation by LCL electroporated with mRNA vaccine, IFN-γ ELISPOT (RNT007 #45). It counts as cell-based, human. The conditions noted are these: FIG. 11; mRNA introduced into LCL by electroporation. As for the experimental part: as §2, §3, §4

“GPESRLLYYYYYYYLAMPFATPMEAELARRSLA (Long chain peptide antigen, containing a mouse CD8+ T cell epitope sequence (NY p81) and a mouse CD4+ T cell epitope sequence (NY p91)) [ESO1 LP (Y6)]”: the “induction of NY p81 specific CD8+ T cells” value in data set [1] is “significant”. Besides, the “induction of NY p91 specific CD4+ T cells” value in data set [2] was “clearly observed”.

As to “GARGPESRLLEFYLAMPFATPMEAELARRSLAQDAPPLPV [ESO1 LP (native type), reference compound]”, in data set [1], the “induction of NY p81 specific CD8+ T cells” value is given as “hardly observed”. Further, the “induction of NY p91 specific CD4+ T cells” value in data set [2] is given as “clearly observed”.

As to “GPESRLL (Peptide sequence containing mouse CD8+ T cell epitope, NY p82)”, the immunogenicity entry with CD8+ T cell was “poorer in immunogenicity than NY p81”.

B1: NMW(Y6) mRNA: mRNA (RNA vaccine) from template cDNA Sequence No. 31, encoding long chain peptide antigen NMW with Y6 interepitope sequence (nucleic acid)
DNA: GGATCCATGAGCCTCCTGATGTGGATTACCCAATGCTATTACTACTATTACTACAACTATAAGAGATGTTTCCCCGTGATCTATTACTACTACTACTATTGCTATACATGGAATCAGATGAACCTGTGAGAATTC
modifications: mRNA transcribed from template cDNA; DNA sequence of a long chain peptide antigen, containing three types of human CD8+ T cell recognition epitope sequences (NY p157, MA4 p143, and WT1 p235)
For the molecule B1, the “activation of 1G4 cells” value in data set [3] is on record as “clearly confirmed”. In data set [4], the “activation of RNT007 #45 cells” value is “clearly confirmed”.
